{"source": "patent US9089605B2", "about": "“Quinone derivatives, pharmaceutical compositions, and uses thereof” (Indiana University Research and Technology Corporation, priority 2007, dated 2015)", "key": {"[1]": {"assay": "Qualitative solubility in solvents", "type": "physicochemical", "conditions": "listed solvents"}, "avidin": {"biological_target": "avidin (Gallus gallus, UniProt P02701)", "sequence (P02701 25-152, species assumed)": "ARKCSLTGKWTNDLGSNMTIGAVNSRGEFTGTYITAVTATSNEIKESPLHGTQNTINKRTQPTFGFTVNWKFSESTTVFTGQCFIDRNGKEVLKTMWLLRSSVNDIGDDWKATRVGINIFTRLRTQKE", "conditions": "cited from earlier work"}}, "note": "“Also recorded” adds a separate entry of the source.", "data": [{"smiles": "O=C(O)CCCC[C@H]1[C@H]2NC(=O)N[C@H]2CS1(=O)=O", "note": "[Compound 89, 5-((1R,5S,6S)-3,7,7-trioxo-7-thia-2,4-diazabicyclo[3.3.0]oct-6-yl)pentanoic acid]", "values": [{"measurement": "solubility (qualitative)", "setting": "[1]", "value": "Insoluble in CH2Cl2, acetone, MeOH, water; also recorded: Soluble in DMSO and NaOH aq"}, {"measurement": "melting point", "value": 255, "unit": "°C"}, {"measurement": "avidin binding weaker than biotin", "setting": "avidin", "value": "approximately 3 fold"}]}]}
